Data: patent US20130270195A1, “MULTIFUNCTIONAL COMPOSITION FOR THE DISINFECTION TREATMENT OF WATER, AND USE OF THIS COMPOSITION” (Compagnie Des Salins Du Midi Et Des Salines De L'Est, priority 2010, published 2013)

Key:
[1] = Evolution of turbidity of swimming pool water samples (HACH turbidity meter); assay type: physicochemical; conditions: for Turbidity: Aquacid or metasilicate 40.0 mg/L
Text: The aim of this test was to compare the effect of two compositions comprising sodium chloride and isocyanuric acid in disinfecting swimming pool water, one further comprising HEDP, and the other metasilicate in order to obtain a composition according to the invention.
In all of the examples below, the substances used were as follows: • salt; • isocyanuric acid; • Aquacid© (powder with 72% HEDP); • disodium metasilicate pentahydrate; • tap water; • commercial bleach (concentration of bleach: 2.15% of active chlorine); • 1N hydrochloric acid; • 35% sulfuric acid; • sodium hydroxide; and • acetone.
The following proportions were prepared to prepare the samples:
The measurement of the turbidity, in NTU (Nephelometric Turbidity Unit), was carried out with the aid of a HACH turbidity meter at the time intervals indicated in Table 3. The reaction conditions were selected in order to accelerate the appearance of any cloudiness.

[2] = Anti-limescale effect: calcium deposited as limescale on beaker walls; conditions: for anti-limescale activity: conclusion in words; for % non limescale calcium / Calcium (part of the calcium responsible for the production of limescale): sample 11 Aquacid 24.0 mg/L, sample 14 metasilicate 20.0 mg/L
Method: The aim of this test was to analyze the reaction of two additives (HEDP, metasilicate) in the presence of calcium.
The apparatus used was as follows: • new beakers with a volume of 400 milliliters (mL), a pH meter, an oven at 70° C., plastic film as well as normal laboratory apparatus (including class A glassware).
The operating protocol can be summarized as follows: • For each test formulation, 300 mL of equivalent swimming pool solution was prepared in the beakers provided. Each series of analyses was spread over two types of water: one with a HT=30° F. and one with a HT=15° F., in order to produce a spectrum of results covering a broad range of water types. The isocyanuric acid was added in the liquid form from a 1 grams per liter (g/L) solution. The additives (HEDP, metasilicate) for the formulations were added in the liquid form from 1 g/L solutions. The solutions were systematically buffered, either with sulfuric acid or with sodium hydroxide, in order to provide an initial pH in the range 6.8 to 7.4 (maximum efficiency range for chlorine). The solutions were left covered with film and were analyzed 3 days later so that the substances had reacted. At the time the analysis was carried out, the beakers were placed in an oven at 70° C. in order to evaporate the liquid phase. They were then rinsed with 100 ml of osmosis purified water in order to eliminate the soluble deposits and to leave only limescale deposits on their walls. The beakers were then refilled with osmosis purified water and 1 mL of 1N hydrochloric acid in order to dissolve the deposits: the measurements were carried out on these solutions.
The parameters below were monitored during the study: • The following were measured for the starting tap water: pH, HT (hydrptimetric titer), calcium, AT (alkalimetric titer), and CAT (complete alkalimetric titer).
The pH was monitored throughout the experiment. The calcium was measured at the end of the experiment.

[3] = Anti-corrosion effect: steel plate immersed in 4 g/L saline solutions; conditions: for anti-corrosion activity: conclusion in words; for Fe loss/plate: results at 2 months, 4 g/L saline, sample 11 Aquacid 24.0 mg/L, sample 14 metasilicate 20.0 mg/L
Method: The principle of the method consists of completely immersing, in 4 g/L saline solutions with the compounds of the formulations, one steel plate per beaker, disposed vertically in order to have as little contact as possible with the glass. The formulations were those presented in section 4 in Example 3.
The efficacy of the formulations was evaluated as a function of the loss on ignition of the plate over a period of time, namely 2 months.
The following apparatus was used: • 400 mL beakers, pH-meter, steel plate with a surface area of 5.3 cm^2, plastic film as well as normal laboratory apparatus (including class A glassware). The operating protocol can be summarized as follows:
• stripping the plates with 1N hydrochloric acid using ultrasound in order to have plates of identical quality; • degreasing the plate with acetone in order to obtain identical active surfaces; • weighing the plates with milligram precision.
Swimming pool concentration solutions were prepared in advance in 2 liters (L) graduated flasks in order to provide mutually homogeneous media. The beakers were filled with 300 mL of the above-mentioned solutions. The beakers were covered with food quality film in order to prevent the medium from being polluted and in order to prevent too much evaporation.
The parameters measured were as follows: • on the tap water: pH, HT, AT, CAT, calcium.
In order to accelerate the phenomenon of corrosion, bubbling was carried out using an aquarium pump and outlet jets mounted on a rail. The bubbling time was 10 minutes. The solutions were aerated on odd days of the week. Since bubbling raises the pH, it was brought back to swimming pool in-service values, between 6.8 and 7.4. In order to maintain the salinity at 4 g/L and to overcome natural evaporation, tap water was added in order to keep the volume of water constant at 300 mL.
The following parameters were measured: • pH; • observations of the solutions and immersed plates once a day, taking photographs. These observations were made without handling either the beakers or the solutions.
The scraping spatula was treated with ultrasound then the plates were scraped using the spatula to recover the deposit. In order to terminate stripping of the plate and thus to collect all of the deposit, the plate and the spatula were treated with ultrasound in a water bath. The deposits were then filtered through 10 micrometer (pm) pores and 1.2 μm pores and then dried.
The following parameters were measured: • the plates were weighed to milligram precision; • an iron analysis was carried out on the plates; • a dissolved iron analysis was carried out on the solutions.
The analyses were carried out after 2 months.

[4] = Chlorine stabilizing effect under UV radiation (residual chlorine assay); assay type: physicochemical; conditions: for Residual chlorine: starting 3 mg/L Cl2, sample 11 Aquacid 24.0 mg/L, sample 14 metasilicate 20.0 mg/L
Method: In the presence of UV radiation, chlorine is destroyed photochemically. Isocyanuric acid can be used to reduce the destruction of chlorine under the effect of UV.
The following apparatus was used: 5 liter volume bucket, pH meter and normal laboratory apparatus (including class A glassware).
The operating procedure can be summarized as follows: • For each test formulation, two liters of solution was prepared in the buckets provided. The isocyanuric acid was added in the liquid form from a 1 g/L solution. The additives (metasilicates, HEDP) for the formulations were added in the liquid form from 1 g/L solutions. The dose of chlorine necessary for this study was provided by bleach in quantities that meant that solutions containing 3 mg/L of Cl2 were obtained. The solutions were systematically buffered, either with sulfuric acid or with sodium hydroxide, in order to provide a starting pH in the range 6.8 to 7.4 (zone of maximum efficiency for chlorine).
The following parameters were measured during the study: • for the starting water: pH, residual chlorine, HT, calcium, AT, CAT were measured; • throughout the experiment: pH, residual chlorine were monitored.
The chlorine measurements were carried out using quantitative chlorine assay. The measurements were carried out at times T+32 h10 and T+50 h10; the formulation of the compositions at time T are given in Table 4.

[5] = time T, salt 4.0 g/L, iso acid 28.0 mg/L, chlorine 3.0 mg/L
[6] = first starting water, HT 27 °f, calcium 109 mg/L
[7] = second starting water, HT 14.6 °f
[8] = second starting water, HT 14.6 °f, calcium 44.3 mg/L

SMILES: CC(O)(P(=O)(O)O)P(=O)(O)O [HEDP, 1-hydroxyethane-1,1-diphosphonic acid, reference compound]
- Turbidity ([1]; T + 94 h): 20.5 NTU
- Turbidity ([1]; T + 118 h): 22.5 NTU
- Turbidity ([1]; T + 142 h): 30.1 NTU
- Turbidity ([1]; T + 168 h): 34.2 NTU
- Turbidity ([1]; T + 192 h): 44.4 NTU
- Turbidity ([1]; T + 216 h): 56.8 NTU
- Turbidity [1, 5]: 0.243 NTU
- anti-limescale activity [2]: have an anti-limescale activity
- calcium in the water before treatment transformed into limescale ([2]; first starting water, HT 27 °f): 7.9%
- % non limescale calcium [2, 6]: 92.1%
- Calcium (part of the calcium responsible for the production of limescale) [2, 6]: 8.6 mg/L
- calcium of the water before treatment transformed into limescale [2, 7]: 8.6%
- % non limescale calcium [2, 8]: 91.4%
- Calcium (part of the calcium responsible for the production of limescale) [2, 8]: 3.8 mg/L
- anti-corrosion activity [3]: have an anti-corrosion activity
- Fe loss/plate [3]: 2.80%
- Loss of chlorine ([4]; T + 32 h 10): 100.00%
- Residual chlorine ([4]; T + 32 h 10): 0 mg/L
- Loss of chlorine ([4]; T + 50 h 10): 100.00%
- Residual chlorine ([4]; T + 50 h 10): 0 mg/L

SMILES: O.O.O.O.O.O=[Si]([O-])[O-].[Na+].[Na+] [Metasilicate, disodium metasilicate pentahydrate]
- Turbidity ([1]; T + 94 h): 0.538 NTU
- Turbidity ([1]; T + 118 h): 0.547 NTU
- Turbidity ([1]; T + 142 h): 0.526 NTU
- Turbidity ([1]; T + 168 h): 0.579 NTU
- Turbidity ([1]; T + 192 h): 1.4 NTU
- Turbidity ([1]; T + 216 h): 1.45 NTU
- cloudiness of the water detectable to the naked eye ([1]; same conditions as Table 3): does not induce any cloudiness
- Turbidity [1, 5]: 0.274 NTU
- anti-limescale activity [2]: better anti-limescale activity than that of the HEDP
- calcium in the water before treatment transformed into limescale ([2]; first starting water, HT 27 °f): 3.5%
- % non limescale calcium [2, 6]: 96.5%
- Calcium (part of the calcium responsible for the production of limescale) [2, 6]: 3.8 mg/L
- calcium of the water before treatment transformed into limescale [2, 7]: 5.9%
- % non limescale calcium [2, 8]: 94.1%
- Calcium (part of the calcium responsible for the production of limescale) [2, 8]: 2.6 mg/L
- anti-corrosion activity [3]: anti-corrosion activity that is even better than that of HEDP
- Fe loss/plate [3]: 1.63%
- Loss of chlorine ([4]; T + 32 h 10): 36.36%
- Residual chlorine ([4]; T + 32 h 10): 1.89 mg/L
- Loss of chlorine ([4]; T + 50 h 10): 62.96%
- Residual chlorine ([4]; T + 50 h 10): 1.1 mg/L
- preservation of the residual chlorine concentration ([4]; conclusion in words): preserves the residual chlorine concentration better than HEDP
